# Key:
# [1] = target: T1, Serine/threonine-protein kinase greatwall (Homo sapiens) (UniProt Q96GX5); experiment: Selectivity interaction (Kinase panel (KiNativ target engagement assay in Jurkat cells)) EUB0001635a MASTL; format: cell-based; details: at 1 µM
# T1 sequence (whole entry): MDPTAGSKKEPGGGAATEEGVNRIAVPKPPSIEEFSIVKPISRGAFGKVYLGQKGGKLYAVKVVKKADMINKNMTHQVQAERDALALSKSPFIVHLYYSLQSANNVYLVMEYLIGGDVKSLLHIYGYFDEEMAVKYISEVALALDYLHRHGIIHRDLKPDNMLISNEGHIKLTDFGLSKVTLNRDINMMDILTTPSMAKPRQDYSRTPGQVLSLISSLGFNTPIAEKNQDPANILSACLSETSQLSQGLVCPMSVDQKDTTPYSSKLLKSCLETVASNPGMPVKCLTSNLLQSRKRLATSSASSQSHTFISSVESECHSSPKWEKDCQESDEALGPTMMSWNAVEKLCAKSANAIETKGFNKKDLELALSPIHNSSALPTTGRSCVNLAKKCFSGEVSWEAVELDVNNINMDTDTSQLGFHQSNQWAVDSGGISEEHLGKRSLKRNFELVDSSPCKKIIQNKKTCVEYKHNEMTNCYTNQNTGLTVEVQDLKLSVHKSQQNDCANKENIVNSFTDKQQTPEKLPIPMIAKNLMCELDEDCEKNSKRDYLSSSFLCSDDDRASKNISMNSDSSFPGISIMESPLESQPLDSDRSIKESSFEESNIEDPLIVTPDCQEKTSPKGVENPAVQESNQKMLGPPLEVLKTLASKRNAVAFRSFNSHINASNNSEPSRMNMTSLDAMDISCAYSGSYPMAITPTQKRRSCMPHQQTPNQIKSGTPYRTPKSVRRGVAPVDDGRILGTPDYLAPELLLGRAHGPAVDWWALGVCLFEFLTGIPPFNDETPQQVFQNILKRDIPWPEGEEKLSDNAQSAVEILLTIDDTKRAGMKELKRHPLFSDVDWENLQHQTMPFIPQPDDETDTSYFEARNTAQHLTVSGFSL
# [2] = target: T2, Mitogen-activated protein kinase kinase kinase 12 (Homo sapiens) (UniProt Q12852); experiment: Selectivity interaction (KinomeScan (DiscoverX)) EUB0000595a MAP3K12; details: at 10 µM
# T2 sequence (whole entry): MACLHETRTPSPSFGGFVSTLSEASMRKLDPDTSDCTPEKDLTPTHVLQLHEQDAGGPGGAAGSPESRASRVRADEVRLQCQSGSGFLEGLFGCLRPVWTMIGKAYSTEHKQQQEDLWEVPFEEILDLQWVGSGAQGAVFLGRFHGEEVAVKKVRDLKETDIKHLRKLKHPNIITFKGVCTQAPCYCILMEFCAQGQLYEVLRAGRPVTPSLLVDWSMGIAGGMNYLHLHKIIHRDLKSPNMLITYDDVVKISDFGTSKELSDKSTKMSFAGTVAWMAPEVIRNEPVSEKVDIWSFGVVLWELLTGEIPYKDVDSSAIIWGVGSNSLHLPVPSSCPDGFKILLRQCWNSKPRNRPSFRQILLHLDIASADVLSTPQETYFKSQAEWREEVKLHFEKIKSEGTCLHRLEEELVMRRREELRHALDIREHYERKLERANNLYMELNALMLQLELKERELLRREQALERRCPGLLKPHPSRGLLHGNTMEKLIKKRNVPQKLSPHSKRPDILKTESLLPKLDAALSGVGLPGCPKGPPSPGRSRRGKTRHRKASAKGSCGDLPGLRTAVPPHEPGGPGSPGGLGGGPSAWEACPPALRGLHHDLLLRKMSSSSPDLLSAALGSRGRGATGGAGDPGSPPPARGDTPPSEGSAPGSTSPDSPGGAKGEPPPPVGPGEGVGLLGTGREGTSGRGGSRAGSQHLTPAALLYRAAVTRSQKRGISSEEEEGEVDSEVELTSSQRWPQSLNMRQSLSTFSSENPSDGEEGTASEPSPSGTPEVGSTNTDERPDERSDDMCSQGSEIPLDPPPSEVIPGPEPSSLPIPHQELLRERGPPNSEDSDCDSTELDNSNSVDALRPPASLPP
# [3] = target: T3, Tyrosine-protein kinase ZAP-70 (Homo sapiens, UniProt P43403); experiment: Selectivity interaction (Kinase panel (enzymatic assay)) EUB0000595a ZAP70
# T3 sequence (P43403 whole entry): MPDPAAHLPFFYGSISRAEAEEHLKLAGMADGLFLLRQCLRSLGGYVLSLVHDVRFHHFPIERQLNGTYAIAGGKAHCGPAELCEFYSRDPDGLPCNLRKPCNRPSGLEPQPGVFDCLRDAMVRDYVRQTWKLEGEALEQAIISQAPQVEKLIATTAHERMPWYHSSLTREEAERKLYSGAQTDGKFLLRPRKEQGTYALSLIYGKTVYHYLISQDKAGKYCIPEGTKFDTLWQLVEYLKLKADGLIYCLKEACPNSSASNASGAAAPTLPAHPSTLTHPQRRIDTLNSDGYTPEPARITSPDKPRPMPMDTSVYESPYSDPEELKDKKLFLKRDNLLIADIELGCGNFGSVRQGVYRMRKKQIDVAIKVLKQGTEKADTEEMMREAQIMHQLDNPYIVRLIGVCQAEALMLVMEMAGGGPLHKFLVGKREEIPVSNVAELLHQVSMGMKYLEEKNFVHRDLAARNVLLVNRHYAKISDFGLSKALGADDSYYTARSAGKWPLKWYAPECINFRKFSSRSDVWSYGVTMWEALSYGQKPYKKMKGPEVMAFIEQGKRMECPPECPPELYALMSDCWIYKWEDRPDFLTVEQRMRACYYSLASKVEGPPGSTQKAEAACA
# [4] = target: T4, Myotonin-protein kinase (Homo sapiens) (UniProt Q09013); experiment: Selectivity interaction (KinomeScan (DiscoverX)) EUB0000092b DMPK; details: at 10 µM
# T4 sequence (whole entry): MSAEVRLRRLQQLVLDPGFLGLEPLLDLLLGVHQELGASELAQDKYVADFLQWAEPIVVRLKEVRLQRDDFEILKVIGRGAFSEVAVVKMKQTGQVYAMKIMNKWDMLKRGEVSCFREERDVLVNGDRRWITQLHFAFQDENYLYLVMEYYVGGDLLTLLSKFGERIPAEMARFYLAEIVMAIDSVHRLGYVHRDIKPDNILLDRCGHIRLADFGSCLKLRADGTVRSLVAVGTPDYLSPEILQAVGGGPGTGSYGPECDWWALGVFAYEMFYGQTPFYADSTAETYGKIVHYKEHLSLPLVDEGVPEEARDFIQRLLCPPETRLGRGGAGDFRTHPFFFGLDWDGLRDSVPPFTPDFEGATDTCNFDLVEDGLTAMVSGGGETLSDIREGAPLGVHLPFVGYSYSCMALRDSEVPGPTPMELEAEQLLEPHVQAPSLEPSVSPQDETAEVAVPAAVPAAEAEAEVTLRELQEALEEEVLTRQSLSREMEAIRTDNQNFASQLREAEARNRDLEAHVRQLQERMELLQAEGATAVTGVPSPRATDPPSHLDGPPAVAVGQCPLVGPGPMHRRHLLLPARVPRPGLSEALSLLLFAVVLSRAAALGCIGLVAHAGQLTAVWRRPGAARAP
compound,measurement,setting,value
C=CC(=O)Nc1ccc(C(=O)Nc2[nH]nc3c2CN(C(=O)N[C@H](CN(C)C)c2ccccc2)C3(C)C)cc1,% of engagement,[1],5.2%
COCC(=O)NC/C=C/c1ccc2ncnc(Nc3ccc(Oc4ccc(C)nc4)c(C)c3)c2c1 [CP-724714],% of control,[2],92%
same,IC50,[3],> 10 µM
CCC(=O)N1CCN(c2ccc(-n3c(=O)ccc4cnc5ccc(-c6cnc7ccccc7c6)cc5c43)cc2C(F)(F)F)CC1,% of control,[4],77%

# Reference: ChEMBL document CHEMBL5465560, “Selectivity Literature for EUbOPEN Chemogenomic Library” (2024)
